# Measured values published in BindingDB's records for doi:10.1021/jm030905y (Vrije Universiteit, 2003).
# Target: Histamine H4 receptor (Homo sapiens, UniProt Q9H3N8)
# Assay: Inhibitory activity measured by [3H]- N alpha- methyl-histamine binding to membranes of SK-N-MC cells expressing the human Histamine H4 receptor
# Chain of Histamine H4 receptor (Q9H3N8 whole entry): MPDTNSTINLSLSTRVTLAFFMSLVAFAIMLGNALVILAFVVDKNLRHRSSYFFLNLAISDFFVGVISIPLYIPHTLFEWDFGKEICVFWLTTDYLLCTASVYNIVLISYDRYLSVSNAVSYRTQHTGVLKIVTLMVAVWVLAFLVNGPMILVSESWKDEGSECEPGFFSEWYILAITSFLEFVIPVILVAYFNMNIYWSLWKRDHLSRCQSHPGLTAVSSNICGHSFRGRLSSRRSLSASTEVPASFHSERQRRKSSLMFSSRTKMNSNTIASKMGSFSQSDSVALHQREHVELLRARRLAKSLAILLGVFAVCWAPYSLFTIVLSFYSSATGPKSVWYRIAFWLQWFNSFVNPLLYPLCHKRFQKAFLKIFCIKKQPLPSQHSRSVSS
row,Compound,Ki [nM]
1,C[C@@H](N)Cc1c[nH]cn1 [CHEBI:73337],239
2,NCCCc1c[nH]cn1 [Homohistamine],34.7
